Measured values reported in PubChem BioAssay (NCI).
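48-hour exposure; five concentrations; linearly interpolated endpoints. At the GI50, growth is halved. The concentration for full growth arrest is given as TGI.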

Experiments:
Test in all cases: NCI tumour cell line growth inhibition, 48 h
A549 NSCLC = system: A549 NSCLC
HT29 colon = system: HT29 colon
MALME-3M melanoma = system: MALME-3M melanoma
EKVX NSCLC = system: EKVX NSCLC
HCT-116 colon = system: HCT-116 colon
SN12C renal = system: SN12C renal
MDA-N = system: MDA-N
OVCAR-4 ovarian = system: OVCAR-4 ovarian
HS 578T breast = system: HS 578T breast
NCI-H460 lung = system: NCI-H460 lung
786-0 renal = system: 786-0 renal
LOX IMVI melanoma = system: LOX IMVI melanoma
HCC-2998 colon = system: HCC-2998 colon
CCRF-CEM leukemia = system: CCRF-CEM leukemia
OVCAR-3 ovarian = system: OVCAR-3 ovarian
RXF 393 renal = system: RXF 393 renal
UACC-257 melanoma = system: UACC-257 melanoma
DU-145 prostate = system: DU-145 prostate
CAKI-1 renal = system: CAKI-1 renal
SR leukemia = system: SR leukemia
NCI-H23 lung = system: NCI-H23 lung
RPMI-8226 leukemia = system: RPMI-8226 leukemia
U251 CNS = system: U251 CNS
OVCAR-5 ovarian = system: OVCAR-5 ovarian
SK-MEL-5 melanoma = system: SK-MEL-5 melanoma
HOP-62 NSCLC = system: HOP-62 NSCLC
MDA-MB-435 = system: MDA-MB-435
SW-620 colon = system: SW-620 colon
BT-549 breast = system: BT-549 breast
MCF7 breast = system: MCF7 breast
UACC-62 melanoma = system: UACC-62 melanoma
NCI/ADR-RES ovarian = system: NCI/ADR-RES ovarian
HCT-15 colon = system: HCT-15 colon
COLO 205 colon = system: COLO 205 colon
NCI-H226 lung = system: NCI-H226 lung
SK-MEL-2 melanoma = system: SK-MEL-2 melanoma
TK-10 renal = system: TK-10 renal
SK-MEL-28 melanoma = system: SK-MEL-28 melanoma
SF-268 CNS = system: SF-268 CNS
KM12 colon = system: KM12 colon
SF-295 CNS = system: SF-295 CNS
NCI-H522 lung = system: NCI-H522 lung
K-562 leukemia = system: K-562 leukemia
MOLT-4 leukemia = system: MOLT-4 leukemia
PC-3 prostate = system: PC-3 prostate
ACHN renal = system: ACHN renal
HL-60(TB) leukemia = system: HL-60(TB) leukemia
UO-31 renal = system: UO-31 renal
A498 renal = system: A498 renal
SF-539 CNS = system: SF-539 CNS
IGROV1 ovarian = system: IGROV1 ovarian
OVCAR-8 ovarian = system: OVCAR-8 ovarian
MDA-MB-231 breast = system: MDA-MB-231 breast
M14 melanoma = system: M14 melanoma
T-47D breast = system: T-47D breast
SK-OV-3 ovarian = system: SK-OV-3 ovarian
SNB-75 CNS = system: SNB-75 CNS
SNB-19 CNS = system: SNB-19 CNS
HOP-92 NSCLC = system: HOP-92 NSCLC

## Cc1n[nH]c(=O)n1/N=C\c1ccccc1
A549 NSCLC
  TGI: > 100000 nM
HT29 colon
  TGI: > 100000 nM
MALME-3M melanoma
  TGI: > 100000 nM
EKVX NSCLC
  TGI: > 100000 nM
HCT-116 colon
  TGI: > 100000 nM
SN12C renal
  TGI: > 100000 nM
MDA-N
  TGI: > 100000 nM
OVCAR-4 ovarian
  TGI: > 100000 nM
HS 578T breast
  TGI: > 100000 nM
NCI-H460 lung
  TGI: > 100000 nM
786-0 renal
  TGI: > 100000 nM
LOX IMVI melanoma
  TGI: > 100000 nM
HCC-2998 colon
  TGI: > 100000 nM
CCRF-CEM leukemia
  TGI: > 100000 nM
OVCAR-3 ovarian
  TGI: > 100000 nM
RXF 393 renal
  TGI: 50900 nM
UACC-257 melanoma
  TGI: > 100000 nM
DU-145 prostate
  TGI: > 100000 nM
CAKI-1 renal
  TGI: > 100000 nM
SR leukemia
  TGI: > 100000 nM
NCI-H23 lung
  TGI: > 100000 nM
RPMI-8226 leukemia
  TGI: > 100000 nM
U251 CNS
  TGI: > 100000 nM
OVCAR-5 ovarian
  TGI: > 100000 nM
SK-MEL-5 melanoma
  TGI: > 100000 nM
HOP-62 NSCLC
  TGI: > 100000 nM
MDA-MB-435
  TGI: > 100000 nM
SW-620 colon
  TGI: > 100000 nM
BT-549 breast
  TGI: > 100000 nM
MCF7 breast
  TGI: > 100000 nM
UACC-62 melanoma
  TGI: > 100000 nM
NCI/ADR-RES ovarian
  TGI: > 100000 nM
HCT-15 colon
  TGI: > 100000 nM
COLO 205 colon
  TGI: > 100000 nM
NCI-H226 lung
  TGI: > 100000 nM
SK-MEL-2 melanoma
  TGI: > 100000 nM
TK-10 renal
  TGI: > 100000 nM
SK-MEL-28 melanoma
  TGI: > 100000 nM
SF-268 CNS
  TGI: > 100000 nM
KM12 colon
  TGI: > 100000 nM
SF-295 CNS
  TGI: > 100000 nM
NCI-H522 lung
  TGI: > 100000 nM
K-562 leukemia
  TGI: > 100000 nM
MOLT-4 leukemia
  TGI: > 100000 nM
PC-3 prostate
  TGI: > 100000 nM
ACHN renal
  TGI: > 100000 nM
HL-60(TB) leukemia
  TGI: > 100000 nM
UO-31 renal
  TGI: > 100000 nM
A498 renal
  TGI: > 100000 nM
SF-539 CNS
  TGI: > 100000 nM
IGROV1 ovarian
  TGI: > 100000 nM
OVCAR-8 ovarian
  TGI: > 100000 nM
MDA-MB-231 breast
  TGI: > 100000 nM

## CCc1ccc(CCC(=O)Nc2ncc(Cc3ccc(Cl)cc3)s2)o1
A549 NSCLC
  GI50: 496 nM
  TGI: > 100000 nM
HT29 colon
  GI50: 367 nM
  TGI: > 100000 nM
MALME-3M melanoma
  GI50: 466 nM
  TGI: > 100000 nM
EKVX NSCLC
  GI50: 527 nM
  TGI: > 100000 nM
HCT-116 colon
  GI50: 427 nM
  TGI: > 100000 nM
SN12C renal
  GI50: 753 nM
  TGI: > 100000 nM
OVCAR-4 ovarian
  GI50: > 100000 nM
  TGI: > 100000 nM
HS 578T breast
  GI50: 300 nM
  TGI: 27900 nM
NCI-H460 lung
  GI50: 335 nM
  TGI: > 100000 nM
786-0 renal
  GI50: 582 nM
  TGI: > 100000 nM
LOX IMVI melanoma
  GI50: 1020 nM
  TGI: > 100000 nM
HCC-2998 colon
  GI50: 812 nM
  TGI: > 100000 nM
CCRF-CEM leukemia
  GI50: 352 nM
  TGI: > 100000 nM
OVCAR-3 ovarian
  GI50: 248 nM
  TGI: 682 nM
RXF 393 renal
  GI50: 226 nM
  TGI: 675 nM
UACC-257 melanoma
  TGI: > 100000 nM
DU-145 prostate
  GI50: 329 nM
  TGI: > 100000 nM
CAKI-1 renal
  GI50: 451 nM
  TGI: > 100000 nM
SR leukemia
  GI50: 419 nM
  TGI: > 100000 nM
M14 melanoma
  GI50: 271 nM
NCI-H23 lung
  GI50: 1530 nM
  TGI: > 100000 nM
RPMI-8226 leukemia
  GI50: 372 nM
  TGI: > 100000 nM
U251 CNS
  GI50: 371 nM
  TGI: > 100000 nM
T-47D breast
  GI50: 1480 nM
  TGI: > 100000 nM
SK-OV-3 ovarian
  GI50: 449 nM
  TGI: > 100000 nM
OVCAR-5 ovarian
  GI50: 615 nM
  TGI: > 100000 nM
SK-MEL-5 melanoma
  GI50: 377 nM
  TGI: > 100000 nM
HOP-62 NSCLC
  GI50: 623 nM
  TGI: > 100000 nM
MDA-MB-435
  GI50: 147 nM
  TGI: 366 nM
SW-620 colon
  GI50: 375 nM
  TGI: > 100000 nM
BT-549 breast
  GI50: 2120 nM
  TGI: > 100000 nM
MCF7 breast
  GI50: 328 nM
  TGI: > 100000 nM
UACC-62 melanoma
  GI50: 491 nM
  TGI: > 100000 nM
NCI/ADR-RES ovarian
  GI50: 335 nM
  TGI: > 75300 nM
HCT-15 colon
  GI50: 356 nM
  TGI: > 100000 nM
SNB-75 CNS
  GI50: 195 nM
  TGI: 771 nM
NCI-H226 lung
  TGI: > 100000 nM
SK-MEL-2 melanoma
  GI50: 684 nM
  TGI: > 100000 nM
TK-10 renal
  TGI: > 100000 nM
SK-MEL-28 melanoma
  GI50: 4270 nM
  TGI: > 100000 nM
SF-268 CNS
  GI50: 1680 nM
  TGI: > 100000 nM
KM12 colon
  GI50: 377 nM
  TGI: > 100000 nM
SF-295 CNS
  GI50: 374 nM
  TGI: > 100000 nM
NCI-H522 lung
  GI50: 302 nM
  TGI: 53900 nM
K-562 leukemia
  GI50: 365 nM
  TGI: > 100000 nM
MOLT-4 leukemia
  GI50: 530 nM
  TGI: > 100000 nM
PC-3 prostate
  GI50: 403 nM
  TGI: > 100000 nM
ACHN renal
  GI50: 660 nM
  TGI: > 100000 nM
HL-60(TB) leukemia
  GI50: 289 nM
  TGI: 1930 nM
UO-31 renal
  GI50: 650 nM
  TGI: > 100000 nM
A498 renal
  GI50: 208 nM
  TGI: 844 nM
SF-539 CNS
  GI50: 245 nM
  TGI: 727 nM
IGROV1 ovarian
  GI50: 549 nM
  TGI: > 100000 nM
SNB-19 CNS
  GI50: 463 nM
  TGI: > 100000 nM
HOP-92 NSCLC
  GI50: 4610 nM
  TGI: > 100000 nM
OVCAR-8 ovarian
  GI50: 572 nM
  TGI: > 100000 nM
MDA-MB-231 breast
  GI50: 699 nM
  TGI: > 100000 nM
